This passage reports Kd and Ka results from ChEMBL document CHEMBL5252632, “Small molecule-based fluorescent probes for the detection of α-Synuclein aggregation states” (Bioorg Med Chem Lett, 2023).

Structures are written as SMILES.

For orientation: Kd means the constant that tells how readily two partners part at equilibrium.

Chain of Amyloid-beta precursor protein (P05067 whole entry): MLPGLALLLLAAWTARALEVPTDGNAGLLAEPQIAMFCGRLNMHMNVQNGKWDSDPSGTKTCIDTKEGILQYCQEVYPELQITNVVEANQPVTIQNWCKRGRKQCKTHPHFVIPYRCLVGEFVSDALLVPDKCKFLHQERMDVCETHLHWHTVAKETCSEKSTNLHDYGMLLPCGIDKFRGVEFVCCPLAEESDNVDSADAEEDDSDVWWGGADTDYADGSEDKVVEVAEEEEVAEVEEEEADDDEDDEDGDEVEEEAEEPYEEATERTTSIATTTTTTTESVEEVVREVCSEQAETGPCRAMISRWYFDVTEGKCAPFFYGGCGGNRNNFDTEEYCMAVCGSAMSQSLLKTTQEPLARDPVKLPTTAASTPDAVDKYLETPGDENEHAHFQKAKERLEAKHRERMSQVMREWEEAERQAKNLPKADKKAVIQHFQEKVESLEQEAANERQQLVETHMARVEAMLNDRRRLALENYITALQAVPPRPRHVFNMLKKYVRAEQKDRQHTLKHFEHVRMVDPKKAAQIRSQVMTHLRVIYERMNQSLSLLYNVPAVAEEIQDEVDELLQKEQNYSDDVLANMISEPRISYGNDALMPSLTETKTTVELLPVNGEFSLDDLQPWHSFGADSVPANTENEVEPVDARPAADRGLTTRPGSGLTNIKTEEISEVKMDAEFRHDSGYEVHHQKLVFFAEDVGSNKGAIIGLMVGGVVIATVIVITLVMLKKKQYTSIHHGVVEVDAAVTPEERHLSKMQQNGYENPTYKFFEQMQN

One test has as its target T1, Alpha-synuclein (Homo sapiens, UniProt P37840). Nature of the test: Binding affinity to human recombinant Alpha-synuclein assessed as dissociation constant by fluorometric method.
For the compound `O=S(=O)(O)c1ccc2cc(Nc3ccccc3)ccc2c1`, the dissociation constant (Kd) stood at 8.8 µM.

Consider `O=S(=O)(O)c1cccc2c(-c3ccc(Nc4ccccc4)c4c(S(=O)(=O)O)cccc34)ccc(Nc3ccccc3)c12`, for which the equilibrium dissociation constant (Kd) was determined as 8.6 µM.

Another test addresses Amyloid-beta precursor protein (Homo sapiens, UniProt P05067). In words: Binding affinity to amyloid beta (1 to 40) (unknown origin) aggregates assessed as dissociation constant.
`COc1ccc2nc(-c3ccc(N4CCCCCCC4)cc3)sc2c1`: the Kd is 0.22 µM.

As for `COc1ccc2nc(-c3ccc(N4CCCCC4)cc3)sc2c1`, the dissociation constant (Kd) was 0.22 µM.

As for `COc1ccc2nc(-c3ccc(N(C)C)cc3)sc2c1`, the Kd came out at 0.22 µM.

For the compound `COc1ccc2nc(-c3ccc(N4CCCCCC4)cc3)sc2c1`, the Kd turned out to be 0.22 µM.

On to `COc1ccc2nc(-c3ccc(N4CCOCC4)cc3)sc2c1`, for which the Kd stood at 0.22 µM.

Regarding `COc1ccc2nc(-c3ccc(N4CCCC4)cc3)sc2c1`, the Kd worked out at 0.22 µM.

Take `CN(C)c1ccc2nc(/C=C/C=C/C=C(C#N)C#N)sc2c1`: the Kd was found to be 0.048 µM.

The target in the next test is T1, Alpha-synuclein. Nature of the test: Binding affinity to C-terminal His6-tagged human Alpha-synuclein fibrils (1 to 97 residues) expressed in Escherichia coli assessed as association constant by chromatography method.
With `OCCOC(=C\C=C1N(c2ccccc2)c2cc3ccccc3cc2N1c1ccccc1)/C=C/c1n(-c2ccccc2)c2cc3ccccc3cc2[n+]1-c1ccccc1`, the Ka came to 380000 M⁻¹.

The target of a further test is T1, Alpha-synuclein. In words: Binding affinity to Alpha-synuclein (unknown origin) assessed as dissociation constant.
Turning to `COc1ccc2c(c1)sc(-c1ccc(N(C)C)cc1)[n+]2C`, the Kd was 118 µM.

For the compound `COc1ccc2c(c1)sc(-c1ccc(N3CCCCCCC3)cc1)[n+]2C`, the Kd worked out at 118 µM.

With `COc1ccc2c(c1)sc(-c1ccc(N3CCCCCC3)cc1)[n+]2C`, the Kd amounted to 118 µM.

On to `COc1ccc2c(c1)sc(-c1ccc(N3CCOCC3)cc1)[n+]2C`, for which the Kd was 118 µM.

As for `COc1ccc2c(c1)sc(-c1ccc(N3CCCCC3)cc1)[n+]2C`, the Kd worked out at 118 µM.
